Measured values: patent publication US10730913B1, “Antimicrobial analogues of gramicidin S” (priority 2018, dated 2020)
Numbered stars: 1 amine (or outer) side, 2 acyl side, 3 side chain; on linkers, the order of the positions; unused ones are H or OH. Square brackets hold non-standard residues; d marks the D form. Peptide text beside a SMILES is read from it. X1 = NN([C@H](Cc1ccccc1)C(=O)[*:2])[*:1]; Orn(Nα-NH2) = NCCC[C@H](NN)C(=O)O; Orn = NCCC[C@H](N)C(=O)O

How the values were obtained:
Type in all cases: cell-based
[1] = system: Human red blood cells (hRBCs); experiment: Hemolysis assay using whole human blood; conditions: for Hemolytic Activity (% Hemolysis): hRBCs, 15 min at 37° C., relative to 1.0% triton X-100
Procedure: Hemolytic Activity: The hemolytic activity of the compounds disclosed herein was also tested. A hemolysis assay was performed using whole human blood (Bioreclamation). […] Cells were incubated for 15 min at 37° C. before being centrifuged at 5500 g for 1 min to pellet nonlysed hRBCs. The supernatant was removed, added to a 96-well microtiter plate, and the OD543 was read using a Biotek synergy2 plate reader. The negative control was vehicle only (DMSO), and the positive control was 1.0% triton X-100.

[2] = system: Pseudomonas aeruginosa; experiment: MIC determination against ESKAPE pathogens (broth culture, 96-well, turbidity); conditions: Pseudomonas aeruginosa strain 1419; 37° C.
Procedure: (§1) The antimicrobial activity of the compounds disclosed herein was tested against a variety of bacteria. The bacterial strains comprised a panel of drug-resistant gram-positive and gram-negative bacteria known as ESKAPE pathogens. The minimum inhibitory concentration (MIC) for the compounds were determined as follows. Broth cultures of ESKAPE strains were grown overnight before being diluted 1 in 1000 in fresh media. Sterile 96-well plates were loaded with culture, and compounds (in DMSO) were added at decreasing concentrations to equal a total volume of 200 μL per well. Care was taken to not add more than 2.0% DMSO to any well. Plates were then incubated at 37° C., and MICs determined after 24 h by visual inspection for a lack of turbidity in wells. All assays were performed in triplicate with identical results obtained.

[3] = system: Enterococcus faecium; experiment: as above; conditions: Enterococcus faecium strain 1450; 37° C.
Procedure: as §1

[4] = system: Enterobacter cloacae; experiment: as above; conditions: Enterobacter cloacae strain 1454; 37° C.
Procedure: as §1

[5] = system: Staphylococcus aureus; experiment: as above; conditions: Staphylococcus aureus strain 635; 37° C.
Procedure: as §1

[6] = system: Acinetobacter baumannii; experiment: as above; conditions: Acinetobacter baumannii strain 5075; 37° C.
Procedure: as §1

[7] = system: gram-negative bacteria; experiment: Antimicrobial activity, summary for gram-negative bacteria; conditions: compared to GS
Procedure: as §1

Row | SMILES | Hemolytic Activity (% Hemolysis) ([1]; 6.25 μM) | Hemolytic Activity (% Hemolysis) ([1]; 12.5 μM) | Hemolytic Activity (% Hemolysis) ([1]; 25 μM) | Hemolytic Activity (% Hemolysis) ([1]; 50 μM) | MC90 Results, Pa (−) [2] | MC90 Results, Ef (+) [3] | MC90 Results, Ec (−) [4] | MC90 Results, Sa (+) [5] | MC90 Results, Ab (−) [6] | toxicity to human cells compared to GS [1] | activity against gram-negative bacteria [7]
1 | CC(C)C[C@@H]1NC(=O)[C@H](CCCN)NC(=O)[C@H](C(C)C)NC(=O)[C@@H]2CCCN2C(=O)[C@@H](Cc2ccccc2)NC(=O)[C@H](CC(C)C)NC(=O)[C@H](CCCN)N(N)C(=O)[C@H](C(C)C)NC(=O)[C@@H]2CCCN2C(=O)[C@@H](Cc2ccccc2)NC1=O [Compound 3] (HELM PEPTIDE1{L.[dF].P.V.[Orn].L.[dF].P.V.[NCCC[C@@H](C(=O)[*:2])N(N)[*:1]]}$PEPTIDE1,PEPTIDE1,1:R1-10:R2$$$V2.0) | 0.00% | 0.00% | 1.49% | 13.68% | 13 µM | 3 µM | 30 µM | 2 µM | 6.5 µM | – | –
2 | CC(C)C[C@@H]1NC(=O)[C@H](CCCN)NC(=O)[C@H](C(C)C)NC(=O)[C@@H]2CCCN2C(=O)[C@@H](Cc2ccccc2)N(N)C(=O)[C@H](CC(C)C)NC(=O)[C@H](CCCN)N(N)C(=O)[C@H](C(C)C)NC(=O)[C@@H]2CCCN2C(=O)[C@@H](Cc2ccccc2)NC1=O [Compound 6] (HELM PEPTIDE1{L.[dF].P.V.[NCCC[C@@H](C(=O)[*:2])N(N)[*:1]].L.[NN([C@H](Cc1ccccc1)C(=O)[*:2])[*:1]].P.V.[Orn]}$PEPTIDE1,PEPTIDE1,1:R1-10:R2$$$V2.0) | 0.00% | 0.00% | 3.24% | 17.91% | – | – | – | – | – | – | –
3 | CC(C)C[C@@H]1NC(=O)[C@H](CCCN)NC(=O)[C@H](C(C)C)NC(=O)[C@@H]2CCCN2C(=O)[C@@H](Cc2ccccc2)N(N)C(=O)[C@H](CC(C)C)NC(=O)[C@H](CCCN)N(N)C(=O)[C@H](C(C)C)NC(=O)[C@@H]2CCCN2C(=O)[C@@H](Cc2ccccc2)N(N)C1=O [Compound 5] (cyclo(L[X1]PV[Orn]L[X1]PV[Orn(Nα-NH2)])) | 0.21% | 0.00% | 2.82% | 17.93% | – | – | – | – | – | – | –
4 | CC(C)C[C@@H]1NC(=O)[C@H](CCCN)NC(=O)[C@H](C(C)C)NC(=O)[C@@H]2CCCN2C(=O)[C@@H](Cc2ccccc2)N(N)C(=O)[C@H](CC(C)C)NC(=O)[C@H](CCCN)NC(=O)[C@H](C(C)C)NC(=O)[C@@H]2CCCN2C(=O)[C@@H](Cc2ccccc2)N(N)C1=O [Compound 2] (HELM PEPTIDE1{L.[NN([C@H](Cc1ccccc1)C(=O)[*:2])[*:1]].P.V.[Orn].L.[NN([C@H](Cc1ccccc1)C(=O)[*:2])[*:1]].P.V.[Orn]}$PEPTIDE1,PEPTIDE1,1:R1-10:R2$$$V2.0) | 0.00% | 0.00% | 2.84% | 11.24% | 35 µM | 4 µM | >50 µM | 4 µM | 12.5 µM | – | –
5 | CC(C)C[C@@H]1NC(=O)[C@H](CCCN)N(N)C(=O)[C@H](C(C)C)NC(=O)[C@@H]2CCCN2C(=O)[C@@H](Cc2ccccc2)N(N)C(=O)[C@H](CC(C)C)NC(=O)[C@H](CCCN)N(N)C(=O)[C@H](C(C)C)NC(=O)[C@@H]2CCCN2C(=O)[C@@H](Cc2ccccc2)NC1=O [Compound 8] (cyclo(L[dF]PV[Orn(Nα-NH2)]L[X1]PV[Orn(Nα-NH2)])) | 0.00% | 0.88% | 2.91% | 15.07% | 12 µM | 2 µM | >50 µM | 2 µM | 6 µM | – | –
6 | CC(C)C[C@@H]1NC(=O)[C@H](CCCN)N(N)C(=O)[C@H](C(C)C)NC(=O)[C@@H]2CCCN2C(=O)[C@@H](Cc2ccccc2)N(N)C(=O)[C@H](CC(C)C)NC(=O)[C@H](CCCN)N(N)C(=O)[C@H](C(C)C)NC(=O)[C@@H]2CCCN2C(=O)[C@@H](Cc2ccccc2)N(N)C1=O [Compound 9] (cyclo(L[X1]PV[Orn(Nα-NH2)]L[X1]PV[Orn(Nα-NH2)])) | 0.00% | 2.75% | 6.19% | 25.01% | 15 µM | 2 µM | >50 µM | 2 µM | 5 µM | exception | –
7 | CC(C)C[C@@H]1NC(=O)[C@H](CCCN)N(N)C(=O)[C@H](C(C)C)NC(=O)[C@@H]2CCCN2C(=O)[C@@H](Cc2ccccc2)N(N)C(=O)[C@H](CC(C)C)NC(=O)[C@H](CCCN)NC(=O)[C@H](C(C)C)NC(=O)[C@@H]2CCCN2C(=O)[C@@H](Cc2ccccc2)NC1=O [Compound 4] (HELM PEPTIDE1{L.[dF].P.V.[Orn].L.[NN([C@H](Cc1ccccc1)C(=O)[*:2])[*:1]].P.V.[NCCC[C@@H](C(=O)[*:2])N(N)[*:1]]}$PEPTIDE1,PEPTIDE1,1:R1-10:R2$$$V2.0) | 0.00% | 0.00% | 1.98% | 14.00% | 15 µM | 3 µM | 30 µM | 2 µM | 6.5 µM | – | –
8 | CC(C)C[C@@H]1NC(=O)[C@H](CCCN)N(N)C(=O)[C@H](C(C)C)NC(=O)[C@@H]2CCCN2C(=O)[C@@H](Cc2ccccc2)NC(=O)[C@H](CC(C)C)NC(=O)[C@H](CCCN)N(N)C(=O)[C@H](C(C)C)NC(=O)[C@@H]2CCCN2C(=O)[C@@H](Cc2ccccc2)NC1=O [Compound 7] (HELM PEPTIDE1{L.[dF].P.V.[NCCC[C@@H](C(=O)[*:2])N(N)[*:1]].L.[dF].P.V.[NCCC[C@@H](C(=O)[*:2])N(N)[*:1]]}$PEPTIDE1,PEPTIDE1,1:R1-10:R2$$$V2.0) | 0.00% | 0.21% | 3.57% | 15.84% | 10 µM | 2 µM | 20 µM | 2 µM | 4 µM | – | improved significantly
9 | CC(C)C[C@@H]1NC(=O)[C@H](CCCN)NC(=O)[C@H](C(C)C)NC(=O)[C@@H]2CCCN2C(=O)[C@@H](Cc2ccccc2)N(N)C(=O)[C@H](CC(C)C)NC(=O)[C@H](CCCN)NC(=O)[C@H](C(C)C)NC(=O)[C@@H]2CCCN2C(=O)[C@@H](Cc2ccccc2)NC1=O [Compound 1] (HELM PEPTIDE1{L.[dF].P.V.[Orn].L.[NN([C@H](Cc1ccccc1)C(=O)[*:2])[*:1]].P.V.[Orn]}$PEPTIDE1,PEPTIDE1,1:R1-10:R2$$$V2.0) | 0.00% | 0.00% | 0.00% | 0.00% | >50 µM | >50 µM | >50 µM | >50 µM | >50 µM | – | –
